Reference: US9402875B2, “Amidated dopamine neuron stimulating peptide restoration of mitochondrial activity” (University of Kentucky Research Foundation, priority 2006, dated 2016)
Entries after “also recorded” stand apart in the source; their conditions may differ. Ends that are not written are not given here.

How the values were obtained:
[1] = tested on: unilateral 6-OHDA-lesioned rats; test: Neurochemical content of tissue (HPLC-EC); type: in vivo, rat; conditions: 5 weeks after infusion
Protocol: Unilateral 6-OHDA Lesions: The 6-OHDA solution was delivered to two injection sites along the medial forebrain bundle (MFB) using a protocol described by Lundblad et al. (2002) Eur. J. Neurosci. 15:120-132. Five weeks after the unilateral 6-OHDA MFB lesion procedure, animals were grouped based on apomorphine (0.05 mg/kg, s.c.)-induced rotational behaviour: Animals with >300 rotations per 60 minutes were selected. Lesioned animals received 5 vit of either a 20 μg/vd, DNSP-11 solution or citrate buffer vehicle solution in a manner similar to infusion delivery in normal animals.
Neurochemical Content of Tissue: Lesioned animals were euthanized 5 weeks after DNSP-11 or vehicle infusion. The brains were sliced into 1 mm thick sections. […]
The in vitro studies and in vivo measures of the effects of DNSP-11 led to an investigation of the potential neurorestorative properties of DNSP-11 to damaged dopamine neurons in a unilateral rat model of PD. […] At 5 weeks, the substantia nigra and striatum from each rat was analyzed by high performance liquid chromatography coupled with electrochemical detection.
Rats were tested 3-4 weeks after the injection of 6-OHDA using low-dose (0.05 mg/kg, i.p.) apomorphine to induce rotational behavior. […] At 5 weeks, the substantia nigra and striatum from each rat was analyzed by high performance liquid chromatography coupled with electrochemical detection.

[2] = tested on: MN9D cells; test: JC-1 mitochondrial membrane potential assay; type: cell-based
Protocol: (§1) MN9D cells and B65 cells were cultured in Dulbecco's Modified Eagle's Medium (DMEM; 11995 (containing pyridoxol HCl); Sigma, St. Louis, Mo.) supplemented with 10% fetal bovine serum (HyClone, Logan, Utah), 50 U/mL penicillin and streptomycin. For each assay the cells were treated with mitochondrial-specific environmental toxins, i.e., MPP+, rotenone, and/or TaClo, and with or without DNSP-11. After incubation with the toxins, the cells were plated on 24-well poly-D-lysine plates (50,000 cells/well) for TUNEL assay (as described below) or 100,000 cell/well for caspase-3 assay in DMEM medium with 1% (v/v) penicillin-streptomycin only (as described below).
(§2) MN9D and B65 cells were treated with either 50 nM, 100 nM, 250 nM, 500 nM, 2.5 μM or 5 μM rotenone, 50 nM, 100 nM, 250 nM 1-methyl-4-phenylpyridinium (MPP+), or 10 μM , 25 μM, 50 μM, 100 μM, 150 μM or […]-1,2,3,4-tetrahydro-β-carboline (TaClo), for 1 to 12 hours and then incubated at 37° C. in 5% CO2 following pretreatment (1 to 30 minutes) with or without 100 nM or 10 nM DNSP-11. After treatment with rotenone, MPP+ or TaClo and incubation with DNSP-11, the cells were incubated for 30 minutes at 37° C. in a 5% CO2 incubator in the presence of 10 μM of the green fluorescent JC-1 (5,5′, 6,6′-tetrachloro-1,1′,3,3′-tetraethylbenzimidazolyl-cabo-cyanine iodine, T-3168 (Invitrogen)) and then washed in Locke's solution. Optical measurements were acquired with excitation at 485 nm and emission at 527 nm, and 590 nm. The levels of fluorescence at each emission wavelengths were quantified and ratio of measurements was assessed. The pertinent data are given as mean±S.E.M. for mean optical measurements. The values are expressed as percent of the mean control values ±S.E.M. and analyzed using ANOVA.

[3] = tested on: B65 cells; test: JC-1 mitochondrial membrane potential assay; type: cell-based
Protocol: as §1, §2

[4] = tested on: mitochondria of substantia nigra and striatum; test: Mitochondrial State III respiration 28 days after bilateral intranigral DNSP-11; type: in vivo, rat; conditions: 28 days post bilateral intranigral 30 μg
Protocol: Six five-month-old male F344 rats received bilateral intranigral injections of 30 μg DNSP-11. Six age and sex-matched controls received injections of the same volume of vehicle (citrate buffer). Twenty-eight days after test material administration, the animals were euthanized by CO2 anesthesia and the brain samples rapidly dissected. The striatum and substantia nigra were isolated quickly and carefully using a rat brain matrix for F344 rats.
Mitochondrial respiration was assessed using a miniature Clark-type electrode, in a sealed, thermostatic and continuously stirred chamber. Mitochondria were added to the chamber to yield a final protein concentration of 1 mg/ml. The substrate concentrations were 5.0 mM/2.5 mM for glutamate/malate and pyruvate/malate or 10 mM for succinate+[…] rotenone or α-glycerophosphate. State 3 respiration was initiated by the addition of 150 ηmols ADP. The respiratory control ratio was calculated as respiration in the presence of ADP (state 3)/respiration in absence of ADP (state 4). ADP/0 ratios were determined by dividing the amount of ADP phosphorylated during State III respiration by the amount of oxygen consumed. NAD-linked substrates, e.g. glutamate and pyruvate, utilize complexes I, III, IV in their oxidation, succinate utilizes complexes II, III, IV and α-glycerophosphate ultilizes III, IV. […]

[5] = MPP+, rotenone or TaClo 1 to 12 hours, pretreatment with 10 nM or 100 nM DNSP-11

## PPEAPAEDRSL-NH2 [DNSP-11, PPEAPAEDRSL-amide]
[1]; vehicle 7.10±1.40 ng/g
  DOPAC tissue content, substantia nigra: 16.48 ± 4.01 ng/g
[1]; vehicle 34.7±6.4 ng/g
  DA content, substantia nigra: 59.1 ± 7.3 ng/g
[2]; [5]
  mitochondrial potential, protection from toxins: protects the cells; also recorded: significant protection
[2]; no toxin
  mitochondrial potential, DNSP-11 alone: no significant effect
[3]; [5]
  mitochondrial potential, protection from toxins: protects the cells; also recorded: significant protection
[3]; no toxin
  mitochondrial potential, DNSP-11 alone: no significant effect
[4]; striatum
  State III oxygen consumption / oxidative phosphorylation vs vehicle: reached statistical significance; also recorded: increased
[4]; substantia nigra, n=2
  State III oxygen consumption / oxidative phosphorylation vs vehicle: trend towards an increase; also recorded: increased
